{"source": "patent US11725015B2", "about": "“Macrocyclic compound and uses thereof” (President and Fellows of Harvard College, priority 2017, dated 2023)", "key": {"[1]": {"system": "MES-SA/Dx5-Rx1 (human uterine sarcoma, overexpress P-gp)", "assay": "In vitro antiproliferative activity, MES-SA/Dx5-Rx1", "type": "cell-based", "details": "MES-SA/Dx5-Rx1, 72 hours", "experimental": "The in vitro antiproliferative assays for Compound (1) were conducted using a small panel of cancer cell lines including human squamous cell carcinoma of the esophagus (OE21, TE-8), human adenocarcinoma of the esophagus (OE33), and human uterine sarcoma (MES-SA, MES-SA-Dx5-Rx1). All cell lines were cultured in RPMI-1640 medium containing 10% FBS, and penicillin-streptomycin (culture medium), in a 5% CO2 incubator (37° C.). To each well of a 96 well plate (Becton, Dickinson and Company, 353219), 75 μL of cell suspension adjusted to a concentration of 4×10^4 cells/mL with the culture medium was added, and the cells were incubated overnight in a 5% CO2 incubator (37° C.). On the next day, 25 μL of Compound (1) in three-fold dilution series suspended in the culture medium was added to each well, and the resultant was incubated for 72 hours in a 5% CO2 incubator (37° C.). Then, cell viability was determined by CellTiter-Glo® Luminescent Cell Viability Assay (Promega) with 2013 EnVision™ Multilabel Reader (Perkin-Elmer, Wellesley, Mass.). Value of the wells containing cells without adding the test compounds was defined as 100% and the value of the wells containing no cells was defined as 0%. […] The P-gp susceptibility was calculated as the ratio of the IC50 value in MES-SA-Dx5-Rx1 cells, which overexpress P-gp, to the IC50 value in MES-SA cells."}, "[2]": {"system": "KPL-4 subcutaneous xenograft", "assay": "Antitumor activity in KPL-4 subcutaneous xenograft model in combination with trastuzumab in mice", "type": "in vivo", "experimental": "A human HER-2 positive breast cancer cell line KPL-4, which had been cultured in an RPMI-1640 medium containing 10% FBS, and penicillin and streptomycin, was adjusted to a concentration of 1×10^8 cells/mL with Hank's Balanced Salt Solution to prepare a cell suspension. The cell suspension was inoculated in a volume of 100 μL into a subcutaneous part of a right flank of nude mice, 7 weeks of ages (CAnN.Cg-Foxnlnu/CrlCrlj, female, Charles River Laboratories Japan, Inc.).\nOn the basis of the volumes of tumors obtained on the first day of administration, the mice were grouped such that averages of the tumor volumes were substantially equal among the groups. The experiment was conducted on groups each consisting of 6 mice. Each test compound was dissolved in DMSO and a solution was stored at the freezer before use. Immediately before the administration, the stock solution was diluted in saline."}, "[3]": {"system": "CT26 subcutaneous syngeneic model", "assay": "Antitumor activity in CT26 subcutaneous syngeneic model in combination with anti-mPD-1 antibody in mice", "type": "in vivo", "experimental": "A murine undifferentiated colon carcinoma cell line CT26, which had been cultured in an RPMI-1640 medium containing 10% FBS, and penicillin and streptomycin, was adjusted to a concentration of 2×10^7 cells/mL with Hank's Balanced Salt Solution to prepare a cell suspension. On day 1, the cell suspension was inoculated in a volume of 100 μL into a subcutaneous part of a right flank of BALB/c mice, 6 weeks of ages (BALB/cAnNCrlCrlj, female, Charles River Laboratories Japan, Inc.). Two days after the cell inoculation, the mice were randomly divided into four groups and each group consists of 8 mice. The shortest diameter and the longest diameter of a tumor in each mouse were measured by using an electronic digital caliper (Digimatic™ caliper, Mitutoyo Corporation), so as to calculate the volume of the tumor in accordance with the following calculation formula: Tumor volume (mm^3)=Longest diameter (mm)×Shortest diameter (mm)×Shortest diameter (mm)/2 T/C=(mean tumor volume of treated group)/(mean tumor volume of control group) Inhibition of tumor growth (%)=(1−T/C)×100\nThe test compound was intravenously administered at 0.09 mg/kg on days 3 and 11. Anti-mPD-1 antibody (BE0146, Bio X Cell) was intravenously administered at 10 mg/kg on days 3, 7, 11, and 15."}, "[4]": {"system": "FaDu subcutaneous xenograft", "assay": "Antitumor effects in FaDu subcutaneous xenograft model in combination with cetuximab in mice, single dose (Test Example 21)", "type": "in vivo", "details": "single dose Day 1", "experimental": "A human squamous cell carcinoma of the head and neck (SCCHN) cell line FaDu, which had been cultured in an RPMI-1640 medium containing 10% FBS, and penicillin-streptomycin, was adjusted to a concentration of 5×10^7 cells/mL with Hanks' Balanced Salt Solution to prepare a cell suspension. The cell suspension was inoculated in a volume of 100 μL into a subcutaneous part of a right flank of athymic mice (CAnN.Cg-Foxnlnu/CrlCrlj, female, 7 weeks old, Charles River Japan Inc.). Ten days after cell inoculation (Day 1), the length and the width of a tumor in each mouse were measured by using an electronic digital caliper (Mitutoyo Corporation), so as to calculate the volume of the tumor in accordance with the following calculation formula: Tumor volume (mm^3)=Longest diameter (mm)×Shortest diameter (mm)×Shortest diameter (mm)/2 Relative tumor volume (RTV)=Tumor volume (day X)/Tumor volume (the first day)\nOn the basis of TV, the mice were randomly grouped (Day 1). Each group was consisted in six mice. Compound (1) was dissolved in DMSO and a solution was stored in the freezer before use."}, "[5]": {"system": "CTG-2041 (human angiosarcoma) tumor fragments", "assay": "Antitumor effects in CTG-2041 soft tissue sarcoma xenograft model in mice as monotherapy", "type": "in vivo", "details": "100 μg/kg intravenously on Day 1 and Day 8", "excerpt": "Tumor fragments of human angiosarcoma CTG-2041 were implanted s.c. in the left flank of female mice. Tumor growth was monitored twice a week using digital caliper, so as to calculate the volume of the tumor in accordance with the following calculation formula: Tumor volume (mm^3)=Longest diameter (mm)×Shortest diameter (mm)×Shortest diameter (mm)/2 Relative tumor volume (RTV)=Tumor volume (day X)/Tumor volume (the first day)\nWhen the volume of tumors reached approximately 200 mm^3, animals are matched by tumor volume into treatment or control groups and dosing initiated on Day 1. Each group was consisted with five mice. Compound (1) was dissolved in DMSO and a solution was stored in the freezer before use. Compound (1) (100 μg/kg) diluted in saline and intravenously injected on Day 1 and Day 8."}}, "data": [{"smiles": "C=C1C[C@@H]2CC[C@@]34C[C@H]5O[C@H]6[C@@H](O3)[C@H]3O[C@H](CC[C@@H]3O[C@H]6C5O4)CC(=O)O[C@@H]3[C@@H](C)[C@@H]4O[C@@H]5C[C@]6(C[C@@H]7O[C@]8(C[C@H](C)[C@@H]9O[C@H](CN)[C@H](O)C[C@@H]9O8)C[C@H](C)[C@@H]7O6)O[C@@H]5C[C@@H]4O[C@H]3C[C@H]3O[C@@H](CC[C@@H]1O2)C[C@@H](C)C3=C", "note": "[Compound (1)]", "values": [{"measurement": "antiproliferative activity", "setting": "[1]", "result": "potent antiproliferative agent"}, {"measurement": "Tumor Regression (%)", "setting": "[2]; 0.09 mg/kg intravenously + trastuzumab 10 mg/kg", "result": 83, "unit": "%"}, {"measurement": "Tumor Regression (%)", "setting": "[2]; 0.09 mg/kg intravenously, without trastuzumab", "result": 43, "unit": "%"}, {"measurement": "Tumor Regression (%)", "setting": "[2]; 0.18 mg/kg intravenously + trastuzumab 10 mg/kg", "result": 100, "unit": "%"}, {"measurement": "Tumor Regression (%)", "setting": "[2]; 0.18 mg/kg intravenously, without trastuzumab", "result": 87, "unit": "%"}, {"measurement": "Inhibition of tumor growth on day 15 (%)", "setting": "[3]; 0.09 mg/kg intravenously + anti-mPD-1 antibody 10 mg/kg", "result": 62, "unit": "%"}, {"measurement": "Inhibition of tumor growth on day 15 (%)", "setting": "[3]; 0.09 mg/kg intravenously on days 3 and 11, without antibody", "result": 30, "unit": "%"}, {"measurement": "antitumor efficacy with CTX", "setting": "[4]; 180 μg/kg + CTX 10 mg/kg", "result": "stronger than that of CTX monotherapy with tumor regression"}, {"measurement": "antitumor efficacy with CTX", "setting": "[4]; 20 mg/kg + CTX 10 mg/kg", "result": "tended to be stronger than that of CTX monotherapy"}, {"measurement": "antitumor efficacy with CTX", "setting": "[4]; 60 mg/kg + CTX 10 mg/kg", "result": "stronger than that of CTX monotherapy with tumor regression"}, {"measurement": "antitumor activity", "setting": "[5]", "result": "tumor regression"}]}]}
